“Also recorded” adds a separate entry of the source.
Legend:
laser-induced CNV = experiment: Laser-induced choroidal neovascularization (CNV) volume, confocal microscopy; assay type: in vivo, mouse; conditions: for effect on VEGF-A-induced suppression of CNV: given with VEGF-A164 after laser injury
[1] = test system: bone marrow derived endothelial cells (BMDECs); experiment: Bone marrow derived endothelial cell incorporation in GFP chimeric mice (flow cytometry); assay type: in vivo, mouse; conditions: 0.55 ng
Description: We tested the effect of VEGF-A164 injection one day after laser injury in GFP chimeric mice 8 weeks following bone marrow transplantation in mice with engraftment exceeding 90%. In the RPE/choroid, GFP^+ cells were identified only at the site of laser injury and the immediate vicinity (data not shown). The bulk (>60%) of GFP^+ cells in the RPE/choroid following injury expressed either CD11b or F4/80, markers of monocytic lineage, while nearly all (>95%) CD11b^+ and F4/80^+ cells expressed GFP. […] The vast majority (>90%) of GFP^+CD31^+ cells, both in PBS- and VEGF-A164-treated eyes, also expressed CD11b or F4/80.
Flow cytometry. Single cell suspensions isolated from mouse RPE/choroids via collagenase D (20 U/ml; Roche Diagnostics) treatment were incubated in Fc block (0.5 mg/ml; BD Pharmingen) for 15 min on ice. Rabbit antibody to mouse VEGFR-1 (1:250; Santa Cruz) coupled with Cy5-donkey antibody to rabbit IgG Ab (1:250) and Phycoerythrin-conjugated rat antibody to mouse VEGFR-2 (1:250; eBioscience) were used to quantitate cell surface receptor expression. […] DNA content was analyzed following incubation with propidium iodide (0.05 mg/ml; Molecular Probes) containing 0.1% Triton X-100 and RNase A (0.1 mg/ml; Roche).

Ccl-2 = Ccl-2 levels in RPE and choroid after laser injury (ELISA); assay type: in vivo, mouse
[2] = test system: choroidal endothelial cells (CEC); experiment: Cell cycle distribution of CEC after laser injury (flow cytometry, propidium iodide); conditions: mouse, in vivo
Experimental: Flow cytometry. Single cell suspensions isolated from mouse RPE/choroids via collagenase D (20 U/ml; Roche Diagnostics) treatment were incubated in Fc block (0.5 mg/ml; BD Pharmingen) for 15 min on ice. Rabbit antibody to mouse VEGFR-1 (1:250; Santa Cruz) coupled with Cy5-donkey antibody to rabbit IgG Ab (1:250) and Phycoerythrin-conjugated rat antibody to mouse VEGFR-2 (1:250; eBioscience) were used to quantitate cell surface receptor expression. Macrophages defined as F4/80^+CD11c^− cells, were gated by rat antibody to mouse Cy5-F4/80 (1:30; Serotec) and hamster antibody to mouse FITC-CD11c (1:100; Serotec), CEC by FITC-conjugated rat antibody to mouse CD31 (1:250; BD Biosciences), and RPE cells by FITC-conjugated mouse antibody to human pan-cytokeratin (1:250; Sigma-Aldrich) staining following fixation with 4% paraformaldehyde and permeabilization with 1% Triton X-100 (Sigma Aldrich) and subjected to FACS analysis (FACSCalibur, BD Biosciences). DNA content was analyzed following incubation with propidium iodide (0.05 mg/ml; Molecular Probes) containing 0.1% Triton X-100 and RNase A (0.1 mg/ml; Roche).

choroidal macrophages = experiment: Choroidal macrophage recruitment after laser injury (flow cytometry); assay type: in vivo, mouse
Experimental: Drug treatments. VEGF-A164 (4-12 ng), VEGF-A120 (2.7-27 ng), PLGF-1 (12.5-1,250 ng), mouse PLGF-2 (165-1,650 ng), mouse Ccl-2 (0.55 ng), neutralizing goat antibodies to mouse VEGF-A (5-20 ng), mouse VEGFR-1 (6-18 μg), mouse VEGFR-2 (25-250 ng), or rat NP-1 (200-500 ng; all R&D Systems), recombinant human SPARC (100-300 ng; purified in the laboratory of E. H. Sage) or neutralizing mouse antibody to human SPARC (4-12 μg; purified in the laboratory R. W. Brekken, University of Texas), neutralizing rabbit antibody to rat NP-2 (200-500 ng; gifts of D. D. Ginty, Johns Hopkins University and S. Niclou, Netherlands Institute for Brain Research (Shearer, M. C. et al. The astrocyte/meningeal cell interface is a barrier to neurite outgrowth which can be overcome by manipulation of inhibitory molecules or axonal signalling pathways. […]
Flow cytometry. […] Rabbit antibody to mouse VEGFR-1 (1:250; Santa Cruz) coupled with Cy5-donkey antibody to rabbit IgG Ab (1:250) and Phycoerythrin-conjugated rat antibody to mouse VEGFR-2 (1:250; eBioscience) were used to quantitate cell surface receptor expression. […] DNA content was analyzed following incubation with propidium iodide (0.05 mg/ml; Molecular Probes) containing 0.1% Triton X-100 and RNase A (0.1 mg/ml; Roche).

VEGFR-1 = VEGFR-1 (Homo sapiens, UniProt P17948); conditions: cited from earlier work
Sequence of VEGFR-1 (P17948 27-1338, species assumed): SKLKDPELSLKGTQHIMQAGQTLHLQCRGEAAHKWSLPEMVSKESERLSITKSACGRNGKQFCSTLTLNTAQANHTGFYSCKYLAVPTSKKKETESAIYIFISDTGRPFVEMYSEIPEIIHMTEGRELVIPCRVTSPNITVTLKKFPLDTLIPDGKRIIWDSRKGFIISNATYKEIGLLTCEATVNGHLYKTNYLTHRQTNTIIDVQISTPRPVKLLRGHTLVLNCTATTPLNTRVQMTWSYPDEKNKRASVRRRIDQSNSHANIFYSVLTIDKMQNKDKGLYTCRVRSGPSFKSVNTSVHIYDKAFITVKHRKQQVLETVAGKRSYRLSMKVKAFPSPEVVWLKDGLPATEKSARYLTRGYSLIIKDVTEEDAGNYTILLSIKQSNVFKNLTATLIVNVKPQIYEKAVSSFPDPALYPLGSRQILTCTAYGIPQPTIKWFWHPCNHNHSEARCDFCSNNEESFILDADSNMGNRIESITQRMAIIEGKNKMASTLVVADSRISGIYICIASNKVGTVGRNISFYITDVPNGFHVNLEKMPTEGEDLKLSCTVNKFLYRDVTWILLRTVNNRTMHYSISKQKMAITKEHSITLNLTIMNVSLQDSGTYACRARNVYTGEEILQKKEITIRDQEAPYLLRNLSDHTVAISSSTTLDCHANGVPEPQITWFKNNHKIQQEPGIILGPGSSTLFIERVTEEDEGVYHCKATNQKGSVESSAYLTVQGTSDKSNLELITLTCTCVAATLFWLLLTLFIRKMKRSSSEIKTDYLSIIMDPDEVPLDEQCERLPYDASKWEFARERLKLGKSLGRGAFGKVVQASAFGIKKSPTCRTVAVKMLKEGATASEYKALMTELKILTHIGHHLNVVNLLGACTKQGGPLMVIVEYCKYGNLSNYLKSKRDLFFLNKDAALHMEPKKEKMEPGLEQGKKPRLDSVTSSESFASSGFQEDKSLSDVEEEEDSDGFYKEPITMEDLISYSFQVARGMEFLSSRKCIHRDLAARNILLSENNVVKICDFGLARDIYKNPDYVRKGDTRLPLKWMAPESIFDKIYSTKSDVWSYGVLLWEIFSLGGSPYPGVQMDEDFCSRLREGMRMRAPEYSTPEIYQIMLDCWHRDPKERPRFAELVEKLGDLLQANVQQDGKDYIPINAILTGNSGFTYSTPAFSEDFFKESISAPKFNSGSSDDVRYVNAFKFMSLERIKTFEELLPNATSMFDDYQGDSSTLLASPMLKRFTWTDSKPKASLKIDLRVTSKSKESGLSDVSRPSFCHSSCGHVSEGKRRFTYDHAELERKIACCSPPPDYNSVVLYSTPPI

flt3 = conditions: read-out: IC50 flt3; cited from earlier work
c-kit = c-kit (Homo sapiens, UniProt P10721); conditions: cited from earlier work
Sequence of c-kit (P10721 26-976): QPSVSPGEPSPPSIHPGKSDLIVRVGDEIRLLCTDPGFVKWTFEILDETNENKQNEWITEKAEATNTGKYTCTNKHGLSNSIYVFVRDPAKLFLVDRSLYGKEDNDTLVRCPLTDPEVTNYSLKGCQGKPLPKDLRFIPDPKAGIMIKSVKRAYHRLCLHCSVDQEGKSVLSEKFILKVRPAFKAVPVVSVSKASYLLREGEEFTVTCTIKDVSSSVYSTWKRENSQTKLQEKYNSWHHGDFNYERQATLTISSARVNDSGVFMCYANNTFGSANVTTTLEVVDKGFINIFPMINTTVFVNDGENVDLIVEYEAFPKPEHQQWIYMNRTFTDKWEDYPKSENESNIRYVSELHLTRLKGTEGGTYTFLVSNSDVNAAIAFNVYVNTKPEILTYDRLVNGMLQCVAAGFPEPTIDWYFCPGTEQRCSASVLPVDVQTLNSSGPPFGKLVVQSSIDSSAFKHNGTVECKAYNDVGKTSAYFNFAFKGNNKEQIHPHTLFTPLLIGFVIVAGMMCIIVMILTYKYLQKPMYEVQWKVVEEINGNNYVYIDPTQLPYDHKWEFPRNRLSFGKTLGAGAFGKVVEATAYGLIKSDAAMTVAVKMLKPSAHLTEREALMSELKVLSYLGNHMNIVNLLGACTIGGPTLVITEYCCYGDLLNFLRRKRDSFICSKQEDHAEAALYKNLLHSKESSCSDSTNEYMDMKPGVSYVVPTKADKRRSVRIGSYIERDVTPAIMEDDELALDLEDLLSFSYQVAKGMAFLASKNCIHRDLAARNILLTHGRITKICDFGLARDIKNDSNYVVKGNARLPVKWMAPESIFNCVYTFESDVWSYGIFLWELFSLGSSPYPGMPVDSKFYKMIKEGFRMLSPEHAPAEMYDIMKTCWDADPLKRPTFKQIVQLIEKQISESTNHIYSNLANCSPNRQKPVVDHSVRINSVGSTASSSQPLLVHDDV

[3] = test system: platelet derived growth factor receptor (PDGFR); conditions: cited from earlier work
VEGF-A = conditions: mouse, in vivo
[4] = agent alone, intravitreous, immediately or one day after laser injury, wild-type mice, vs PBS

Molecule: Ccl-2: exogenous recombinant Ccl-2, monocyte chemoattractant
- effect on CNV inhibited by VEGF-A antibody (laser-induced CNV; 0.55 ng): restored the CNV
- volume of CNV (laser-induced CNV; Ccl2−/− or Ccr2−/− mice): restores CNV
- volume of CNV (laser-induced CNV; Ccl2−/− or Ccr2−/− mice, listed as Recombinant Ccl-2): restored CNV
- effect on VEGF-A-induced suppression of CNV (laser-induced CNV): abrogates
- effect on VEGF-A-induced suppression of CNV (laser-induced CNV; listed as recombinant Ccl-2): abrogated
- effect on VEGF-A164 reduction in vasculogenesis [1]: abrogated
- effect on clodronate liposome reduction of BMDEC incorporation [1]: did not abrogate

Molecule: C=CC1=C(C)c2cc3[n-]c(cc4[n-]c(cc5nc(cc1n2)C(C)=C5C=C)c(C)c4CCC(=O)O)c(CCC(=O)O)c3C.[Zn+2] [ZnPP, zinc protoporphyrin IX]
- effect on VEGF-A-induced suppression of CNV (laser-induced CNV): abolished
- effect on VEGF-A-induced suppression of Ccl-2 (Ccl-2): abolished
- effect on VEGF-A-induced G0/G1 arrest of CEC [2]: reversed

Molecule: OB(O)c1cccc(NCc2cc(O)ccc2O)c1 [DBAPBA]
- effect on VEGF-A-induced suppression of monocyte recruitment (choroidal macrophages): blocked
- effect on VEGF-A-induced suppression of CNV (laser-induced CNV): blocked; also recorded: reversed by DBAPBA in a dose-dependent fashion
- effect on VEGF-A-induced suppression of Ccl-2 (Ccl-2): blocked
- IC50 (VEGFR-1): 40000 nM

Molecule: CC(C)c1cc(/C=C(\C#N)C(=O)NCCCc2ccccc2)cc(C(C)C)c1O [SU1498, (E)-3-(3,5-diisopropyl-4-hydroxyphenyl)-2-[(3-phenyl-n-propyl)amino-carbonyl]acrylonitrile]
- effect on VEGF-E-induced increase in CNV (laser-induced CNV; after laser injury): blocked

Molecule: COC(=O)[C@@H](N)CCCNC(=N)N[N+](=O)[O-] [L-NAME, N^ω-nitro-L-arginine methyl ester]
- effect on VEGF-A-induced suppression of CNV (laser-induced CNV): did not reverse; also recorded: not affected

Molecule: Cc1cc2ncc(-c3ccccc3)nc2cc1C [AG1295, 6,7-dimethyl-2-phenylquinoxaline]
- effect on VEGF-A-induced suppression of CNV (laser-induced CNV): Neither AG1295 (15 ng) nor PHA665752 (0.4 ng) blocked
- IC50 (flt3): 500 nM
- IC50 (c-kit): 1800 nM
- IC50 [3]: 400 nM

Molecule: Cc1occc(=O)c1[O-].Cc1occc(=O)c1[O-].[O]=[V+2] [BMOV, bis(maltolato)oxovanadium(IV)]
- effect on VEGF-A-induced suppression of CNV (laser-induced CNV): abrogated

Molecule: Cc1[nH]c(/C=C2\C(=O)Nc3ccc(S(=O)(=O)Cc4c(Cl)cccc4Cl)cc32)c(C)c1C(=O)N1CCC[C@@H]1CN1CCCC1 [PHA665752]
- effect on VEGF-A-induced suppression of CNV (laser-induced CNV): Neither AG1295 (15 ng) nor PHA665752 (0.4 ng) blocked

Molecule: Cc1cc(C)c(C=C2C(=O)Nc3ccccc32)[nH]1 [SU5416, 3-((2,4-dimethylpyrrol-5-yl)methylidene]-indolin-2-one]
- effect on VEGF-A-induced suppression of monocyte recruitment (choroidal macrophages): blocked
- effect on VEGF-A-induced suppression of CNV (laser-induced CNV): blocked; also recorded: abrogates
- effect on VEGF-A-induced suppression of Ccl-2 (Ccl-2): blocked

Molecule: [Cl-].[Cl-].[Co+2] [CoCl2]
- aggregate VEGF-A exposure (area under the curve) higher than after laser injury alone (VEGF-A): 52%
- peak VEGF-A in RPE and choroid relative to maximal level following laser injury alone (VEGF-A): less than double

Molecule: OO [H2O2]
- volume of CNV (laser-induced CNV; [4]): decreased the volume of CNV; also recorded: inhibited

Molecule: O.O.O.O.O.O.O.O.O.O=C([O-])[C@@H]1[O][Sb]2([O-])([O][Sb]34([OH])[O][C@H]([C@H](O)CO)[C@H]([O]3)[C@H](C(=O)[O-])[O]4)[O][C@H]([C@H](O)CO)[C@@H]1[O]2.[Na+].[Na+].[Na+] [sodium stibogluconate]
- effect on VEGF-A-induced suppression of CNV (laser-induced CNV): abolished

Molecule: FGF-2: basic fibroblast growth factor, another potent angiogenic cytokine
- volume of CNV (laser-induced CNV; [4]): did not evoke similar responses; also recorded: minor increases

B1: SPARC: recombinant human SPARC, secreted protein, acidic, rich in cysteine (protein, UniProt P09486 18-303, looked up)
SPARC: APQQEALPDETEVVEETVAEVTEVSVGANPVQVEVGEFDDGAEETEEEVVAENPCQNHHCKHGKVCELDENNTPMCVCQDPTSCPAPIGEFEKVCSNDNKTFDSSCHFFATKCTLEGTKKGHKLHLDYIGPCKYIPPCLDSELTEFPLRMRDWLKNVLVTLYERDEDNNLLTEKQKLRVKKIHENEKRLEAGDHPVELLARDFEKNYNMYIFPVHWQFGQLDQHPIDGYLSHTELAPLRAPLIPMEHCTTRFFETCDLDNDKYIALDEWAGCFGIKQKDIDKDLVI
- volume of CNV (laser-induced CNV; [4]): did not alter CNV
- effect on VEGF-A-induced suppression of CNV (laser-induced CNV): abolished
- effect on VEGF-A-induced suppression of CNV (laser-induced CNV; listed as recombinant human SPARC): dose-dependently abolished
- inhibition of VEGFR-1 kinase activity (VEGFR-1; in vitro, literature): inhibits the kinase activity of VEGFR-1

From US7553496B2, “VEGF-A as an inhibitor of angiogenesis and methods of using same” (University of Kentucky Research Foundation, priority 2004, dated 2009)
